# Literature values as cited in article PMC2751796 (Pharmacology & therapeutics, 2009).
# Where two headings read alike, the source gives them in different places.
# Legend:
# P-gp [1] = molecular target: P-gp (Rattus norvegicus, UniProt Q6PSM0); conditions: cited from earlier work; for Increase in brain-to-plasma AUC ratio with elacridar: studies in rats (so in the source), ref Barraud de Lagerie et al., 2004
# P-gp [2] = conditions: read-out: Reported EC50; ref Ekins et al., 2002; Rautio et al., 2006; cited from earlier work
# [3] = cited from earlier work
# P-gp [4] = conditions: cited from earlier work; for Fold change in brain uptake ratio in inhibitor-treated vs. control mice / Fold change in brain uptake ratio in inhibitor-treated vs. control mice (value corrected for drug in vasculature): Conc.
# P-gp [5] = conditions: ref Hugnet et al., 1996; Mealey et al., 2001, 2003, 2008; Sartor et al., 2004; cited from earlier work
# [6] = cited from earlier work; remark: listed apart in the source
# P-gp [7] = conditions: four adult rhesus monkeys; ref Warren et al., 2000; cited from earlier work
# P-gp [8] = conditions: cited from earlier work
# [9] = cited from earlier work; for Increase of plasma AUC with ritonavir (200 mg twice daily, 5.5 days): ref Mukwaya et al., 2005
# [10] = mice, cited from earlier work
# P-gp [11] = conditions: parameter not given; ref Saito et al., 2001; cited from earlier work
# P-gp and BCRP = conditions: ref Oostendorp et al., 2009; Chen et al., 2008; cited from earlier work
# Bcrp = conditions: mouse, in vivo; cited from earlier work
# [12] = 16 mg, eight healthy subjects, ref Sadeque et al., 2000
# [13] = Valspodar (12.5 mg/kg, IV), ref Choo et al., 2000
# [14] = Verapamil (12.5 mg/kg, IV), ref Choo et al., 2000
# [15] = Zosuquidar (50 mg/kg, IV), ref Choo et al., 2000
# P-gp (Rattus norvegicus, UniProt Q6PSM0), sequence (Q6PSM0 1-1272): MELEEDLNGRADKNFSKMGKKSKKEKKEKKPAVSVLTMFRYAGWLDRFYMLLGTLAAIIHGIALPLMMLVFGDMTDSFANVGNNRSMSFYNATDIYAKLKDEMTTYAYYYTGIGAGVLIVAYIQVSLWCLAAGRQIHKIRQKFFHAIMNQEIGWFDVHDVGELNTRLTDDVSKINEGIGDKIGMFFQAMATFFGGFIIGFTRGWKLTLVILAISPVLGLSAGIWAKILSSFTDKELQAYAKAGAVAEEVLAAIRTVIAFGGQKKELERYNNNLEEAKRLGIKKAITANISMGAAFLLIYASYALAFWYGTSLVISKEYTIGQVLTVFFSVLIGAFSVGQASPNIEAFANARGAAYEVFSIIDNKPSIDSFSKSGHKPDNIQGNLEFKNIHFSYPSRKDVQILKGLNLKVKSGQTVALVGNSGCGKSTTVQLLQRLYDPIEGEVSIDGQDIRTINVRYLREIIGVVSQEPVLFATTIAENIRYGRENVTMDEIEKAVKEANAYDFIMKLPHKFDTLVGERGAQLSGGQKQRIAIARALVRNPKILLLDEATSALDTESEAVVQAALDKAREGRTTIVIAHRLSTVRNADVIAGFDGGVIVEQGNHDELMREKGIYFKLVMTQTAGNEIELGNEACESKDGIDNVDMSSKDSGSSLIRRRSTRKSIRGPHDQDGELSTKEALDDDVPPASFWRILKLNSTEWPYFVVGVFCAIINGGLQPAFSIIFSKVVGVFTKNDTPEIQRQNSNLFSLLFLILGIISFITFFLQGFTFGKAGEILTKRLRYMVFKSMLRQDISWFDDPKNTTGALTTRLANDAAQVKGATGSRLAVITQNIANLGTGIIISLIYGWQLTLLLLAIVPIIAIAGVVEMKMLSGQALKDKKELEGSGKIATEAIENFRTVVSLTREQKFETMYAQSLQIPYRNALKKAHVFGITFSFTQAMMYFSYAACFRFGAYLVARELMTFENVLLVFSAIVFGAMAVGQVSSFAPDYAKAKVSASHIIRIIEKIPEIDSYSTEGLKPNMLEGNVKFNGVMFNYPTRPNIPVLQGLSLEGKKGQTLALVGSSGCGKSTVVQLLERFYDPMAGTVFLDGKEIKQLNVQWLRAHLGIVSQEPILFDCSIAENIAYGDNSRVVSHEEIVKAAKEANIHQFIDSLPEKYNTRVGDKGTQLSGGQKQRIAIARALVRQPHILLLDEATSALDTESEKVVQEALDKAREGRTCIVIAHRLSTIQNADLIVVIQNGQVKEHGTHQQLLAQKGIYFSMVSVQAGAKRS
compound,measurement,setting,value
"O[C@@H](c1cc(C(F)(F)F)nc2c(C(F)(F)F)cccc12)[C@H]1CCCCN1 [(+) mefloquine, mefloquine]",Increase in brain-to-plasma AUC ratio with elacridar,P-gp [1],2.5 times
"O[C@H](c1cc(C(F)(F)F)nc2c(C(F)(F)F)cccc12)[C@@H]1CCCCN1 [(-) mefloquine, mefloquine]",Increase in brain-to-plasma AUC ratio with elacridar,P-gp [1],1.5 times
O=c1[nH]cnc2c1ncn2[C@H]1CC[C@@H](CO)O1 [Didanosine],Precipitant drug concentration (plasma),"[3]; ref Tuntland et al., 1994",0.9 to 11.3 µg/mL
CC(=O)O[C@@]12CO[C@@H]1C[C@H](O)[C@@]1(C)C(=O)[C@H](O)C3=C(C)[C@@H](OC(=O)[C@H](O)[C@@H](NC(=O)OC(C)(C)C)c4ccccc4)C[C@@](O)([C@@H](OC(=O)c4ccccc4)[C@H]21)C3(C)C [Docetaxel],Increase in brain uptake by single oral doses of valspodar and elacridar,"P-gp [4]; ref Kemper et al., 2004c",up to 2.6 fold
COc1cccc2c1C(=O)c1c(O)c3c(c(O)c1C2=O)C[C@@](O)(C(=O)CO)C[C@@H]3O[C@H]1C[C@H](N)[C@H](O)[C@H](C)O1 [Doxorubicin],Effect of exposure in Collie and other dog breeds that naturally lack P-gp,P-gp [5],neurological symptoms
same,CNS distribution in untreated subjects (ventricular CSF / plasma conc. ratio),"[6]; ref Warren et al., 2000",< 0.05 (ventricular CSF / plasma conc. ratio)
same,CSF concentrations alone or with intravenous cyclosporine,P-gp [7],below the limit of detection
CC[C@H]1OC(=O)[C@H](C)[C@@H](O[C@H]2C[C@@](C)(OC)[C@@H](O)[C@H](C)O2)[C@H](C)[C@@H](O[C@@H]2O[C@H](C)C[C@H](N(C)C)[C@H]2O)[C@](C)(O)C[C@@H](C)C(=O)[C@H](C)[C@@H](O)[C@]1(C)O [Erythromycin],EC50,P-gp [2],38 µM
Cc1ccc(NC(=O)c2ccc(CN3CCN(C)CC3)cc2)cc1Nc1nccc(-c2cccnc2)n1 [Imatinib],Enhancement of brain uptake by valspodar or zosuquidar,"P-gp [4]; ref Bihorel et al., 2007",up to 3 fold
same,Increase in brain distribution with elacridar in WT mice,"P-gp [4]; ref Breedveld et al., 2005, Oostendorp et al., 2009",up to 5 fold
CC(C)(C)NC(=O)[C@@H]1CN(Cc2cccnc2)CCN1C[C@@H](O)C[C@@H](Cc1ccccc1)C(=O)N[C@H]1c2ccccc2C[C@H]1O [Indinavir],EC50,P-gp [2],> 50 µM
CCC(C)n1ncn(-c2ccc(N3CCN(c4ccc(OCC5COC(Cn6cncn6)(c6ccc(Cl)cc6Cl)O5)cc4)CC3)cc2)c1=O (centres unmarked) [Itraconazole],EC50,P-gp [2],0.5 µM
CN(C)C(=O)C(CCN1CCC(O)(c2ccc(Cl)cc2)CC1)(c1ccccc1)c1ccccc1 [Loperamide],Effect of exposure in Collie and other dog breeds that naturally lack P-gp,P-gp [5],neurological symptoms
same,"Opioid-induced respiratory depression, given alone",P-gp [8]; [12],did not produce respiratory depression
same,"Opioid-induced respiratory depression, with quinidine sulfate (600 mg)",P-gp [8]; [12],respiratory depression occurred
same,"Effect of tariquidar (150 mg, iv) on plasma concentrations and CNS effects","P-gp [8]; loperamide 32 mg orally, nine healthy volunteers, ref Kurnik et al., 2008",did not significantly affect
same,Increase of plasma AUC with 600 mg ritonavir,"[9]; 12 healthy volunteers, ref Tayrouz et al., 2001",2.7 fold
same,"Increase of plasma AUC with ritonavir (200 mg twice daily, 5.5 days)",[9],2.2 fold
CNC(=O)C(CCN1CCC(O)(c2ccc(Cl)cc2)CC1)(c1ccccc1)c1ccccc1 [N-desmethyl-loperamide],"Increase of plasma AUC with ritonavir (200 mg twice daily, 5.5 days)",[9],1.4 fold
Cc1c(O)cccc1C(=O)N[C@@H](CSc1ccccc1)[C@H](O)CN1C[C@H]2CCCC[C@H]2C[C@H]1C(=O)NC(C)(C)C [Nelfinavir],Increase in brain uptake with zosuquidar in rats,"P-gp [1]; dose-dependent, ref Anderson et al., 2006",≤ 29 fold
same,CNS distribution in untreated subjects (brain / plasma conc. ratio),"[6]; ref Kaddoumi et al., 2007, Eyal, et al., 2009",0.04
same,"CNS distribution in untreated subjects (lumbar CSF / plasma, conc. ratio)","[6]; ref Kaddoumi et al., 2007",0.006
same,Fold change in brain uptake ratio in inhibitor-treated vs. control mice,"P-gp [4]; Elacridar (10 mg/kg, IV), ref Salama et al., 2005, Giri et al., 2008",8.7 fold
same,Fold change in brain uptake ratio in inhibitor-treated vs. control mice (value corrected for drug in vasculature),"P-gp [4]; Elacridar (10 mg/kg, IV), ref Salama et al., 2005",8.9 fold
same,Fold change in brain uptake ratio in inhibitor-treated vs. control mice,P-gp [4]; [13],10.3 fold
same,Fold change in brain uptake ratio in inhibitor-treated vs. control mice (value corrected for drug in vasculature),P-gp [4]; [13],13.3 fold
same,Fold change in brain uptake ratio in inhibitor-treated vs. control mice,P-gp [4]; [14],"1.0 (1.0), Conc. fold"
same,Fold change in brain uptake ratio in inhibitor-treated vs. control mice (value corrected for drug in vasculature),P-gp [4]; [14],"1.0 (1.0), Conc. fold"
same,Fold change in brain uptake ratio in inhibitor-treated vs. control mice,P-gp [4]; [15],18.1 fold
same,Fold change in brain uptake ratio in inhibitor-treated vs. control mice (value corrected for drug in vasculature),P-gp [4]; [15],25.1 fold
same,Fold change in brain uptake ratio in inhibitor-treated vs. control mice,"P-gp [4]; Zosuquidar (50 mg/kg, IV), ref Choo et al., 2000, listed as nelfinavir",up to 18 fold
same,EC50,P-gp [2],1.4 to 44 µM
CC(=O)O[C@H]1C(=O)[C@@]2(C)[C@H]([C@H](OC(=O)c3ccccc3)[C@]3(O)C[C@H](OC(=O)[C@H](O)[C@@H](NC(=O)c4ccccc4)c4ccccc4)C(C)=C1C3(C)C)[C@]1(OC(C)=O)CO[C@@H]1C[C@@H]2O [Paclitaxel],Increase in brain uptake with elacridar,"P-gp [4]; elacridar plasma concentrations <900 ng/ml, ref Kemper et al., 2003",5 fold
C=C[C@H]1C[N@@]2CC[C@H]1C[C@@H]2[C@@H](O)c1ccnc2ccc(OC)cc12 [Quinidine],EC50,P-gp [2],2 to 55 µM
same,Total concentration achievable in humans treated for tumors,"[9]; ref Raderer & Scheithauer, 1993",4.5 to 5.6 µM
same,Inhibitor concentration (plasma),"[10]; 100 mg/kg, IP, ref Fromm et al., 1999",~2 µM
CC(C)(C)NC(=O)[C@@H]1C[C@@H]2CCCC[C@@H]2CN1C[C@@H](O)[C@H](Cc1ccccc1)NC(=O)[C@H](CC(N)=O)NC(=O)c1ccc2ccccc2n1 [Saquinavir],Fold change in brain uptake ratio in inhibitor-treated vs. control mice,P-gp [4]; [15],"∼ 3.0, Conc. fold"
same,EC50,P-gp [2],6.5 µM
C/C=C/C[C@@H](C)C(=O)[C@H]1C(=O)N[C@@H](C(C)C)C(=O)N(C)CC(=O)N(C)[C@@H](CC(C)C)C(=O)N[C@@H](C(C)C)C(=O)N(C)[C@@H](CC(C)C)C(=O)N[C@@H](C)C(=O)N[C@H](C)C(=O)N(C)[C@@H](CC(C)C)C(=O)N(C)[C@@H](CC(C)C)C(=O)N(C)[C@@H](C(C)C)C(=O)N1C [Valspodar],Inhibitor concentration (brain),"[10]; 50 mg/kg, PO, ref Mayer et al., 1997",250 ng/g
CC[C@]1(O)C[C@@H]2CN(CCc3c([nH]c4ccccc34)[C@@](C(=O)OC)(c3cc4c(cc3OC)N(C)[C@H]3[C@@](O)(C(=O)OC)[C@H](OC(C)=O)[C@]5(CC)C=CCN6CC[C@]43[C@@H]65)C2)C1 [Vinblastine],Effect of exposure in Collie and other dog breeds that naturally lack P-gp,P-gp [5],neurological symptoms
same,Increase in brain uptake by valspodar and elacridar,"P-gp [4]; ref Cisternino et al., 2001",3 fold
same,Fold change in brain uptake ratio in P-gp KO vs. control mice,P-gp [11],3.3 fold
same,Fold change in brain uptake ratio in P-gp KO vs. control mice (value corrected for drug in vasculature),P-gp [11],3.4 fold
CC[C@]1(O)C[C@H]2CN(CCc3c([nH]c4ccccc34)[C@@](C(=O)OC)(c3cc4c(cc3OC)N(C=O)[C@H]3[C@@](O)(C(=O)OC)[C@H](OC(C)=O)[C@]5(CC)C=CCN6CC[C@]43[C@@H]65)C2)C1 [Vincristine],Effect of exposure in Collie and other dog breeds that naturally lack P-gp,P-gp [5],neurological symptoms
Cc1cn([C@H]2C[C@H](N=[N+]=[N-])[C@@H](CO)O2)c(=O)[nH]c1=O [Zidovudine],Precipitant drug concentration (CSF),"[3]; ref Tuntland et al., 1994",0.1 to 2.2 µg/mL
same,Precipitant drug concentration (plasma),"[3]; ref Tuntland et al., 1994",0.5 to 11.2 µg/mL
O[C@@H](COc1cccc2ncccc12)CN1CCN([C@@H]2c3ccccc3[C@@H]3[C@H](c4ccccc42)C3(F)F)CC1 [Zosuquidar],Precipitant drug concentration (CSF),[3]; in vivo,0.0085 µg/mL
Cc1nc(Nc2ncc(C(=O)Nc3c(C)cccc3Cl)s2)cc(N2CCN(CCO)CC2)n1 [dasatinib],Increase of brain-to-plasma concentration ratio in triple KO mice,P-gp and BCRP,10 fold
CCCN(CCC)S(=O)(=O)c1ccc(C(=O)O)cc1 [probenecid],Probenecid CSF concentrations at 2500 mg/m^2,"[9]; ref Bode et al., 1980",2.4 to 3.4 µg/mL
CC(C)(C)c1ccc(C(O)CCCN2CCC(C(O)(c3ccccc3)c3ccccc3)CC2)cc1 (centres unmarked) [terfenadine],Increase in brain uptake with cyclosporine in rats,"P-gp [1]; ref Obradovic et al., 2007",several-fold
CC[C@@]1(O)C(=O)OCc2c1cc1n(c2=O)Cc2cc3c(CN(C)C)c(O)ccc3nc2-1 [topotecan lactone],Decrease of ventricular CSF-to-plasma AUC ratio with gefitinib,Bcrp,17%
[^18F]-Paclitaxel,CNS distribution in untreated subjects (brain / metabolite-corrected plasma AUC ratio),"[6]; ref Kurdziel et al., 2003",0.05 (brain / metabolite-corrected plasma AUC ratio)
